Measurements from ChEMBL document CHEMBL1909046, “DrugMatrix in vitro pharmacology data”.

Tests used:
Leukotriene C4 synthase = biological target: T1, Leukotriene C4 synthase (Cavia porcellus, UniProt A6XA80); assay type: tissue-based, Lung;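 note: enzyme inhibition assay of leukotriene C4 synthase, using LTA4 as the substrate; in other assays of this panel Not Active means under 50% inhibition at 10 µM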
T1 sequence (A6XA80 whole entry): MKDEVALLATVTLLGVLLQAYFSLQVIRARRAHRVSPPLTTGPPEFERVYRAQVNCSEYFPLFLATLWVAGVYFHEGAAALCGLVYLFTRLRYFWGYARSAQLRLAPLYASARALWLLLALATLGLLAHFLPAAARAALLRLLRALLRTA

[1] = biological target: Mitogen-activated protein kinase 3 (Homo sapiens, UniProt P27361); experiment: DRUGMATRIX: Protein Serine/Threonine Kinase, ERK1 enzyme inhibition (substrate: Myelin Basic Protein); design: species or system Escherichia coli; conditions: Not Active = under 50% inhibition at 10 µM
[2] = DRUGMATRIX: Glutamate, NMDA, Agonism radioligand binding (ligand: [3H] CGP-39653); assay type: cell membranes, Rattus norvegicus, Wistar, Cerebral cortex, Membrane; conditions: Not Active = under 50% inhibition at 10 µM
[3] = biological target: Prostaglandin G/H synthase 1 (Homo sapiens, UniProt P23219); experiment: biochemical; assay type: tissue-based, Platelet;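 note: inhibition of COX-1 enzyme activity, with arachidonic acid supplied as substrate; in other assays of this panel Not Active means under 50% inhibition at 10 µM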
[4] = biological target: T2, Muscarinic acetylcholine receptor M5 (Homo sapiens, UniProt P08912); assay type: cell membranes, CHO-K1, Membrane; conditions: for Ki: read-out: Ki; for all read-outs here: in other assays of this panel Not Active means under 50% inhibition at 10 µM
T2 sequence (P08912 whole entry): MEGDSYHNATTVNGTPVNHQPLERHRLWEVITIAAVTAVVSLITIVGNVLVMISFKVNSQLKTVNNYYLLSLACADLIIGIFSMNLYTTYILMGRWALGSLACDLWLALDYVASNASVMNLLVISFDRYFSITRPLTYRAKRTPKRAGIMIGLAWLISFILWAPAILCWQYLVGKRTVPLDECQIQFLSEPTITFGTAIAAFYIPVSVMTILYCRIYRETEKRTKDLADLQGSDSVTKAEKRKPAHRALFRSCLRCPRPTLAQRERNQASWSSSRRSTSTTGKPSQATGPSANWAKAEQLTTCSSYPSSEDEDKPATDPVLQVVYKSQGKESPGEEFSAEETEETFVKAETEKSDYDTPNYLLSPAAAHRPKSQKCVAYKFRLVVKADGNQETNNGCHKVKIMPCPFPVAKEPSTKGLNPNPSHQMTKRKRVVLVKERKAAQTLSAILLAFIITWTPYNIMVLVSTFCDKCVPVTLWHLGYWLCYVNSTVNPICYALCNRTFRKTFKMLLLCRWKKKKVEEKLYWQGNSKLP

[5] = biological target: 5-hydroxytryptamine receptor 2B (Homo sapiens, UniProt P41595); assay type: cell membranes, CHO-K1, Membrane; conditions: for Ki: read-out: Ki; for all read-outs here: in other assays of this panel Not Active means under 50% inhibition at 10 µM
Cytochrome P450 2A6 = biological target: T3, Cytochrome P450 2A6 (Homo sapiens, UniProt P11509); conditions: bti-tn-5b1-4; note: in other assays of this panel Not Active means under 50% inhibition at 10 µM
T3 sequence (P11509 whole entry): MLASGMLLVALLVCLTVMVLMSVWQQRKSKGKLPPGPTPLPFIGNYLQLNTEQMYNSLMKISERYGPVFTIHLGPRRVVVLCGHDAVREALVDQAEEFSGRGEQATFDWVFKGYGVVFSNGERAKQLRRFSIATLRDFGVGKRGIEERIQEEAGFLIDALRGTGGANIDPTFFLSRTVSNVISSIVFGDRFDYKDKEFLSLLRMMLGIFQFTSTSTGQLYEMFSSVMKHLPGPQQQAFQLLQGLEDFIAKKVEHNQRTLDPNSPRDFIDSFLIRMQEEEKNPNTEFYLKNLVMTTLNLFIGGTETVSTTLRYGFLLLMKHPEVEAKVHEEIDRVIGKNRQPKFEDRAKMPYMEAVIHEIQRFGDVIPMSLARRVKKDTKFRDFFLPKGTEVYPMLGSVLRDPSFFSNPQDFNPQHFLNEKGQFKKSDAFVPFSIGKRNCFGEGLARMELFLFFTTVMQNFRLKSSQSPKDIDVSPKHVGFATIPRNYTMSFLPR

Chain of Prostaglandin G/H synthase 1 (P23219 whole entry): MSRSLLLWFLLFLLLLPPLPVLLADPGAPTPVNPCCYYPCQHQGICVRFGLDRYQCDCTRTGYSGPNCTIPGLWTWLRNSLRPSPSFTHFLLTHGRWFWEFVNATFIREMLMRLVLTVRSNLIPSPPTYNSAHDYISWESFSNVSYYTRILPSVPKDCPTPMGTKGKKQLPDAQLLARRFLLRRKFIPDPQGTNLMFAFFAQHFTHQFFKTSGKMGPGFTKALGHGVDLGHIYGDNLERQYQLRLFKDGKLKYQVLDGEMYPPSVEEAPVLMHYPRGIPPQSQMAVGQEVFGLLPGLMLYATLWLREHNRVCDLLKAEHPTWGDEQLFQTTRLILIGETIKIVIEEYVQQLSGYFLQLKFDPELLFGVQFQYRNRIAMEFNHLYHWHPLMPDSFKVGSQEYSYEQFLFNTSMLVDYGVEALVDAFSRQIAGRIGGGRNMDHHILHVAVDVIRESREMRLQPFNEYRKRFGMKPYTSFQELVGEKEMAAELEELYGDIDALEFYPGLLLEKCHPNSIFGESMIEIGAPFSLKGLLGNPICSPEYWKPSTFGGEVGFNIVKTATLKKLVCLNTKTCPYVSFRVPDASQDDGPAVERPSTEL
Chain of Mitogen-activated protein kinase 3 (P27361 whole entry): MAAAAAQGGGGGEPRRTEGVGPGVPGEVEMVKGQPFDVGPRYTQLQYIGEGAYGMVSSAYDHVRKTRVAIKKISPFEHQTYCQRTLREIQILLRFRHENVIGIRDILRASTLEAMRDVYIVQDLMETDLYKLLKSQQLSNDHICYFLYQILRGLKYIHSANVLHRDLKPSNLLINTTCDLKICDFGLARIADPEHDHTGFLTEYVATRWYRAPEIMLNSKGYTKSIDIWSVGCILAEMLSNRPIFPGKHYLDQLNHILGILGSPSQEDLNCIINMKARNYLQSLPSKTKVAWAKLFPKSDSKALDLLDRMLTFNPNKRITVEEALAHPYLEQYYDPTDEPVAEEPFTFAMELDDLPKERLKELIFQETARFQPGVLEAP
Chain of 5-hydroxytryptamine receptor 2B (P41595 whole entry): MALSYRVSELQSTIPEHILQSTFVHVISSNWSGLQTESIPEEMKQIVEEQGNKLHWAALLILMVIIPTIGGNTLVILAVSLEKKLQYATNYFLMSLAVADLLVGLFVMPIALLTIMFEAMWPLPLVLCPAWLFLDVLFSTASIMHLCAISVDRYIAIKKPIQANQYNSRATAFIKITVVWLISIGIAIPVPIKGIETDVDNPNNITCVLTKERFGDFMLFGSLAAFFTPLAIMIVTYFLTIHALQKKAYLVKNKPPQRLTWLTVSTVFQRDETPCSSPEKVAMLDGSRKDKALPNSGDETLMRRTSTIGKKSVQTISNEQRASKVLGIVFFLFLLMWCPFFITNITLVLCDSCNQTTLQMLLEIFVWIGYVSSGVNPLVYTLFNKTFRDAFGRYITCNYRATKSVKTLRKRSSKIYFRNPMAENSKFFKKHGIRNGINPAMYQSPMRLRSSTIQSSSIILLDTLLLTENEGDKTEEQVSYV

Structure (SMILES) | IC50 (Leukotriene C4 synthase) | IC50 ([1]; read-out: IC50) | IC50 [2] | Ki [2] | IC50 ([3]; platelet) | IC50 ([4]; cho-k1) | IC50 ([5]; read-out: IC50) | Ki [5] | IC50 [1] | IC50 (Cytochrome P450 2A6) | Ki (Cytochrome P450 2A6) | IC50 ([5]; cho-k1) | IC50 ([3]; read-out: IC50) | IC50 ([4]; read-out: IC50) | Ki [4]
Cc1c(C)c2c(c(C)c1O)CCC(C)(CN1CCN(c3cc(N4CCCC4)nc(N4CCCC4)n3)CC1)O2 (centres undefined) | Not Active | 4960 nM | Not Active | Not Active | Not Active | Not Active | 519 nM | 330 nM |  |  |  |  |  |  | 
COc1ccc(CCN(C)CCCC(C#N)(c2ccc(OC)c(OC)c2)C(C)C)cc1OC (centres undefined) | Not Active |  | Not Active | Not Active | Not Active | Not Active |  |  | Not Active | Not Active | Not Active |  |  |  | 
CC(C)Cc1ccc([C@@H](C)C(=O)O)cc1 [(R)-IBUPROPHEN] | Not Active |  | Not Active | Not Active | Not Active | Not Active |  |  | Not Active | Not Active | Not Active | Not Active |  |  | 
CN(C)CCOC(c1ccccc1)c1ccccc1 [DIPHENHYDRAMINE] | Not Active |  |  |  | Not Active |  |  |  | Not Active |  |  |  |  |  | 
Clc1ccc(COC(Cn2ccnc2)c2ccc(Cl)cc2Cl)cc1 (centres undefined) [ECONAZOLE] | Not Active |  |  |  | Not Active | Not Active |  |  | Not Active | Not Active | Not Active |  |  |  | 
CCN(CC)CCOc1ccc(/C(=C(/Cl)c2ccccc2)c2ccccc2)cc1 [ENCLOMIPHENE] | Not Active |  |  |  |  |  |  |  | Not Active | Not Active | Not Active |  | 346 nM | 1770 nM | 1270 nM
Fc1ccc(C(c2ccc(F)cc2)N2CCN(C/C=C/c3ccccc3)CC2)cc1 [FLUNARIZINE] | Not Active |  |  |  | Not Active |  |  |  | Not Active | Not Active | Not Active |  |  |  | 
CNCCC(Oc1ccc(C(F)(F)F)cc1)c1ccccc1 (centres undefined) [FLUOXETINE] | Not Active |  |  |  | Not Active |  |  |  | Not Active | Not Active | Not Active | Not Active |  |  | 
Cc1ccc(NC(=O)c2ccc(CN3CCN(C)CC3)cc2)cc1Nc1nccc(-c2cccnc2)n1 [IMATINIB] | Not Active |  |  |  | Not Active | Not Active |  |  |  | Not Active | Not Active | Not Active |  |  | 
CC(C)Oc1ccc2c(=O)c(-c3ccccc3)coc2c1 [IPRIFLAVONE] | Not Active |  | Not Active | Not Active |  | Not Active |  |  | Not Active | Not Active | Not Active | Not Active |  |  | 
CC(C)NCC(O)c1ccc(O)c(O)c1 (centres undefined) [ISOPROTERENOL] | Not Active |  | Not Active | Not Active | Not Active | Not Active |  |  | Not Active | Not Active | Not Active | Not Active |  |  | 
CNC1(c2ccccc2Cl)CCCCC1=O (centres undefined) [KETAMINE] | Not Active |  | Not Active | Not Active | Not Active | Not Active |  |  | Not Active | Not Active | Not Active | Not Active |  |  | 
N#Cc1ccc(C(c2ccc(C#N)cc2)n2cncn2)cc1 [LETROZOLE] | Not Active |  | Not Active | Not Active | Not Active | Not Active |  |  | Not Active | Not Active | Not Active | Not Active |  |  | 
CCN1CCC[C@H]1CNC(=O)c1cc(S(N)(=O)=O)ccc1OC [LEVOSULPIRIDE] | Not Active |  | Not Active | Not Active | Not Active | Not Active |  |  | Not Active | Not Active | Not Active | Not Active |  |  | 
CCN(CC)CC(=O)Nc1c(C)cccc1C [LIDOCAINE] | Not Active |  | Not Active | Not Active | Not Active | Not Active |  |  | Not Active | Not Active | Not Active | Not Active |  |  | 
O=C1Nc2ccc(Cl)cc2C(c2ccccc2Cl)=NC1O (centres undefined) [LORAZEPAM] | Not Active |  | Not Active | Not Active | Not Active | Not Active |  |  | Not Active | Not Active | Not Active | Not Active |  |  | 
CO[C@@H]1[C@@H](OC)[C@H](C)[C@@](O)(CC(=O)O)O[C@H]1[C@H](C)[C@H]1O[C@@]2(CC[C@@](C)([C@H]3CC[C@@](C)([C@@H]4O[C@@H]([C@H]5O[C@](C)(O)[C@H](C)C[C@@H]5C)C[C@@H]4O[C@@H]4C[C@H](OC)[C@@H](OC)[C@H](C)O4)O3)O2)C[C@H](O)[C@H]1C [MADURAMICIN ACID] | Not Active |  | Not Active | Not Active | Not Active | Not Active | 33 nM | 21 nM | Not Active | Not Active | Not Active |  |  |  | 
COc1c2occc2cc2ccc(=O)oc12 [METHOXSALEN] | Not Active |  | Not Active | Not Active | Not Active | Not Active |  |  | Not Active | Not Active | Not Active | Not Active |  |  | 
C[C@H]1C[C@@H]2[C@H]([C@@H](O)C[C@@]3(C)[C@H]2CC[C@]3(O)C(=O)CO)[C@@]2(C)C=CC(=O)C=C12 [METHYLPREDNISOLONE] | Not Active |  | Not Active | Not Active | Not Active | Not Active |  |  | Not Active | Not Active | Not Active | Not Active |  |  | 
Cc1cccc(C)c1OCC(C)N (centres undefined) [MEXILETINE] | Not Active |  | Not Active | Not Active | Not Active | Not Active | 1140 nM | 724 nM | Not Active | Not Active | Not Active |  |  |  | 
Nc1cc(N2CCCCC2)nc(N)[n+]1[O-] [MINOXIDIL] | Not Active |  | Not Active | Not Active | Not Active | Not Active |  |  | Not Active | Not Active | Not Active | Not Active |  |  | 
CO[C@H]1/C=C/O[C@@]2(C)Oc3c(C)c(O)c4c(O)c(c(/C=N/N5CCN(C6CCCC6)CC5)c(O)c4c3C2=O)NC(=O)/C(C)=C\C=C\[C@H](C)[C@H](O)[C@@H](C)[C@@H](O)[C@@H](C)[C@H](OC(C)=O)[C@@H]1C [RIFAPENTINE] | Not Active |  | Not Active | Not Active | Not Active | Not Active |  |  | Not Active | Not Active | Not Active | Not Active |  |  | 
CCCCOc1cc(CC2CNC(=O)N2)ccc1OC (centres undefined) [RO-201724] | Not Active |  | Not Active | Not Active | Not Active | Not Active |  |  | Not Active | Not Active | Not Active | Not Active |  |  | 
CN[C@H]1CC[C@@H](c2ccc(Cl)c(Cl)c2)c2ccccc21 [SERTRALINE] | Not Active |  |  |  | Not Active |  | 3390 nM | 2160 nM | Not Active | Not Active | Not Active |  |  | 507 nM | 365 nM
